This passage reports EC50 results from patent US20110294778A1, “HEPATITIS C INHIBITOR COMPOUNDS” (priority 2009, published 2011).

Test [1] concerns HCV genotype 1b (Con-1) subgenomic replicon with NS3 resistance mutation D168V in Huh-7 cells. Nature of the test: HCV replicon RNA replication assay (NS3 protease variants), genotype 1b D168V. Format: cell-based. The settings on record: Hepatitis C virus, Huh-7, 72 h, read-out: D168V 1b EC50 (nM). (In general: Replicon systems follow genome replication, usually without infectious particles.)

Test [2] deals with HCV genotype 1a (strain H77) subgenomic replicon with NS3 resistance mutation R155K in Huh-7 cells. Nature of the test: HCV replicon RNA replication assay (NS3 protease variants), genotype 1a R155K. It counts as cell-based. The following applies: Hepatitis C virus, Huh-7, 72 h, read-out: R155K 1a EC50 (nM).

The term EC50 denotes the midpoint of the concentration-response curve. As for `COc1ccc2c(O[C@@H]3C[C@H]4C(=O)N[C@]5(C(=O)NS(=O)(=O)C6(C)CC6)C[C@H]5/C=C\CCCCC[C@H](NC(=O)c5ccn(CC(F)(F)F)n5)C(=O)N4C3)cc(OC3CCC3)nc2c1C` [Compound 1023, (2R,6S,12Z,13aS,14aR,16aS)-2-{[2-(cyclobutyloxy)-7-methoxy-8-methylquinolin-4-yl]oxy}-N-[(1-methylcyclopropyl)sulfonyl]-5,16-dioxo-6-({[1-(2,2,2-trifluoroethyl)-1H-pyrazol-3-yl]carbonyl}amino)-1,2,3,6,7,8,9,10,11,13a,14,15,16,16a-tetradecahydrocyclopropa[e]pyrrolo[1,2-a][1,4]diazacyclopentadecine-14a(5H)-carboxamide], the EC50 in test [1] came out at 0.25 nM; in test [2] it was 8.2 nM.

As for `CCn1ccc(C(=O)N[C@H]2CCCCC/C=C\[C@@H]3C[C@@]3(C(=O)NS(=O)(=O)C3CC3)NC(=O)[C@@H]3C[C@@H](Oc4cc(OC(C)C)nc5c(C)c(OC)ccc45)CN3C2=O)n1` [Compound 1024, (2R,6S,12Z,13aS,14aR,16aS)-N-(cyclopropylsulfonyl)-6-{[(1-ethyl-1H-pyrazol-3-yl)carbonyl]amino}-2-{[7-methoxy-8-methyl-2-(propan-2-yloxy)quinolin-4-yl]oxy}-5,16-dioxo-1,2,3,6,7,8,9,10,11,13a,14,15,16,16a-tetradecahydrocyclopropa[e]pyrrolo[1,2-a][1,4]diazacyclopentadecine-14a(5H)-carboxamide], the EC50 was 0.31 nM in test [1] and 3.9 nM in test [2].

Consider `CCOc1cc(O[C@@H]2C[C@H]3C(=O)N[C@]4(C(=O)NS(=O)(=O)C5CC5)C[C@H]4/C=C\CCCCC[C@H](NC(=O)c4ccc(C)s4)C(=O)N3C2)c2ccc(OC)c(Br)c2n1` [Compound 1025, (2R,6S,12Z,13aS,14aR,16aS)-2-[(8-bromo-2-ethoxy-7-methoxyquinolin-4-yl)oxy]-N-(cyclopropylsulfonyl)-6-{[(5-methylthiophen-2-yl)carbonyl]amino}-5,16-dioxo-1,2,3,6,7,8,9,10,11,13a,14,15,16,16a-tetradecahydrocyclopropa[e]pyrrolo[1,2-a][1,4]diazacyclopentadecine-14a(5H)-carboxamide], for which the EC50 worked out at 0.32 nM in test [1] and 4.1 nM in test [2].

As to `COc1ccc2c(O[C@@H]3C[C@H]4C(=O)N[C@]5(C(=O)NS(=O)(=O)C6(C)CC6)C[C@H]5/C=C\CCCCC[C@H](NC(=O)c5cc(C)n(C)n5)C(=O)N4C3)cc(OC(C)C)nc2c1C` [Compound 1026, (2R,6S,12Z,13aS,14aR,16aS)-6-{[(1,5-dimethyl-1H-pyrazol-3-yl)carbonyl]amino}-2-{[7-methoxy-8-methyl-2-(propan-2-yloxy)quinolin-4-yl]oxy}-N-[(1-methylcyclopropyl)sulfonyl]-5,16-dioxo-1,2,3,6,7,8,9,10,11,13a,14,15,16,16a-tetradecahydrocyclopropa[e]pyrrolo[1,2-a][1,4]diazacyclopentadecine-14a(5H)-carboxamide], the EC50 in test [1] turned out to be 0.32 nM; in test [2], 3.3 nM.

`COc1ccc2c(O[C@@H]3C[C@H]4C(=O)N[C@]5(C(=O)NS(=O)(=O)C6CC6)C[C@H]5/C=C\CCCCC[C@H](NC(=O)c5ccn(C(F)F)n5)C(=O)N4C3)cc(OC(C)C)nc2c1C` [Compound 1027, (2R,6S,12Z,13aS,14aR,16aS)-N-(cyclopropylsulfonyl)-6-({[1-(difluoromethyl)-1H-pyrazol-3-yl]carbonyl}amino)-2-{[7-methoxy-8-methyl-2-(propan-2-yloxy)quinolin-4-yl]oxy}-5,16-dioxo-1,2,3,6,7,8,9,10,11,13a,14,15,16,16a-tetradecahydrocyclopropa[e]pyrrolo[1,2-a][1,4]diazacyclopentadecine-14a(5H)-carboxamide]: the EC50 in test [1] was 0.35 nM; in test [2] it was 8.4 nM.

Take `COc1ccc2c(O[C@@H]3C[C@H]4C(=O)N[C@]5(C(=O)NS(=O)(=O)C6(C)CC6)C[C@H]5/C=C\CCCCC[C@H](NC(=O)c5ccn(C)n5)C(=O)N4C3)cc(OC3CC3)nc2c1C` [Compound 1028, (2R,6S,12Z,13aS,14aR,16aS)-2-{[2-(cyclopropyloxy)-7-methoxy-8-methylquinolin-4-yl]oxy}-N-[(1-methylcyclopropyl)sulfonyl]-6-{[(1-methyl-1H-pyrazol-3-yl)carbonyl]amino}-5,16-dioxo-1,2,3,6,7,8,9,10,11,13a,14,15,16,16a-tetradecahydrocyclopropa[e]pyrrolo[1,2-a][1,4]diazacyclopentadecine-14a(5H)-carboxamide]: the 50% effective concentration (EC50) in test [1] came out at 0.37 nM; in test [2], 3.7 nM.

With `CCOc1cc(O[C@@H]2C[C@H]3C(=O)N[C@]4(C(=O)NS(=O)(=O)C5(C)CC5)C[C@H]4/C=C\CCCCC[C@H](NC(=O)c4ccn(CC(F)(F)F)n4)C(=O)N3C2)c2ccc(OC)c(C)c2n1` [Compound 1029, (2R,6S,12Z,13aS,14aR,16aS)-2-[(2-ethoxy-7-methoxy-8-methylquinolin-4-yl)oxy]-N-[(1-methylcyclopropyl)sulfonyl]-5,16-dioxo-6-({[1-(2,2,2-trifluoroethyl)-1H-pyrazol-3-yl]carbonyl}amino)-1,2,3,6,7,8,9,10,11,13a,14,15,16,16a-tetradecahydrocyclopropa[e]pyrrolo[1,2-a][1,4]diazacyclopentadecine-14a(5H)-carboxamide], the 50% effective concentration (EC50) in test [1] was 0.37 nM; in test [2], 6 nM.

As to `CCOc1cc(O[C@@H]2C[C@H]3C(=O)N[C@]4(C(=O)NS(=O)(=O)C5(C)CC5)C[C@H]4/C=C\CCCCC[C@H](NC(=O)c4ccn(C)n4)C(=O)N3C2)c2ccc(OC)c(C)c2n1` [Compound 1030, (2R,6S,12Z,13aS,14aR,16aS)-2-[(2-ethoxy-7-methoxy-8-methylquinolin-4-yl)oxy]-N-[(1-methylcyclopropyl)sulfonyl]-6-{[(1-methyl-1H-pyrazol-3-yl)carbonyl]amino}-5,16-dioxo-1,2,3,6,7,8,9,10,11,13a,14,15,16,16a-tetradecahydrocyclopropa[e]pyrrolo[1,2-a][1,4]diazacyclopentadecine-14a(5H)-carboxamide], the EC50 is 0.38 nM in test [1] and 6.3 nM in test [2].

For `COc1ccc2c(O[C@@H]3C[C@H]4C(=O)N[C@]5(C(=O)NS(=O)(=O)C6CC6)C[C@H]5/C=C\CCCCC[C@H](NC(=O)c5ccn(CCF)n5)C(=O)N4C3)cc(OC(C)C)nc2c1C` [Compound 1031, (2R,6S,12Z,13aS,14aR,16aS)-N-(cyclopropylsulfonyl)-6-({[1-(2-fluoroethyl)-1H-pyrazol-3-yl]carbonyl}amino)-2-{[7-methoxy-8-methyl-2-(propan-2-yloxy)quinolin-4-yl]oxy}-5,16-dioxo-1,2,3,6,7,8,9,10,11,13a,14,15,16,16a-tetradecahydrocyclopropa[e]pyrrolo[1,2-a][1,4]diazacyclopentadecine-14a(5H)-carboxamide], the EC50 in test [1] turned out to be 0.39 nM; in test [2] it was 4.2 nM.

`COc1ccc2c(O[C@@H]3C[C@H]4C(=O)N[C@]5(C(=O)NS(=O)(=O)C6CC6)C[C@H]5/C=C\CCCCC[C@H](NC(=O)c5ccno5)C(=O)N4C3)cc(OC(C)C)nc2c1C` [Compound 1032, (2R,6S,12Z,13aS,14aR,16aS)-N-(cyclopropylsulfonyl)-2-{[7-methoxy-8-methyl-2-(propan-2-yloxy)quinolin-4-yl]oxy}-6-[(1,2-oxazol-5-ylcarbonyl)amino]-5,16-dioxo-1,2,3,6,7,8,9,10,11,13a,14,15,16,16a-tetradecahydrocyclopropa[e]pyrrolo[1,2-a][1,4]diazacyclopentadecine-14a(5H)-carboxamide]: the values for the EC50 in test [1] and in test [2] were 0.58 nM and 7.8 nM, respectively.

As to `Cc1ccc(C(=O)N[C@H]2CCCCC/C=C\[C@@H]3C[C@@]3(C(=O)NS(=O)(=O)C3(C)CC3)NC(=O)[C@@H]3C[C@@H](Oc4cc(OC(C)C)nc5c(C)c(O)ccc45)CN3C2=O)s1` [Compound 1033, (2R,6S,12Z,13aS,14aR,16aS)-2-{[7-hydroxy-8-methyl-2-(propan-2-yloxy)quinolin-4-yl]oxy}-N-[(1-methylcyclopropyl)sulfonyl]-6-{[(5-methylthiophen-2-yl)carbonyl]amino}-5,16-dioxo-1,2,3,6,7,8,9,10,11,13a,14,15,16,16a-tetradecahydrocyclopropa[e]pyrrolo[1,2-a][1,4]diazacyclopentadecine-14a(5H)-carboxamide], the EC50 was found to be 0.58 nM in test [1] and 0.77 nM in test [2].

As to `COc1ccc2c(O[C@@H]3C[C@H]4C(=O)N[C@]5(C(=O)NS(=O)(=O)C6CC6)C[C@H]5/C=C\CCCCC[C@H](NC(=O)c5cc(C)n(C)n5)C(=O)N4C3)cc(OC(C)C)nc2c1C` [Compound 1034, (2R,6S,12Z,13aS,14aR,16aS)-N-(cyclopropylsulfonyl)-6-{[(1,5-dimethyl-1H-pyrazol-3-yl)carbonyl]amino}-2-{[7-methoxy-8-methyl-2-(propan-2-yloxy)quinolin-4-yl]oxy}-5,16-dioxo-1,2,3,6,7,8,9,10,11,13a,14,15,16,16a-tetradecahydrocyclopropa[e]pyrrolo[1,2-a][1,4]diazacyclopentadecine-14a(5H)-carboxamide], the figures for the EC50 in test [1] and in test [2] were 0.67 nM and 7.7 nM, respectively.

Regarding `COc1ccc2c(O[C@@H]3C[C@H]4C(=O)N[C@]5(C(=O)NS(=O)(=O)C6CC6)C[C@H]5/C=C\CCCCC[C@H](NC(=O)c5ccc(C)s5)C(=O)N4C3)cc(OCC(F)(F)F)nc2c1C` [Compound 1035, (2R,6S,12Z,13aS,14aR,16aS)-N-(cyclopropylsulfonyl)-2-{[7-methoxy-8-methyl-2-(2,2,2-trifluoroethoxy)quinolin-4-yl)oxy}-6-{[(5-methylthiophen-2-yl)carbonyl]amino}-5,16-dioxo-1,2,3,6,7,8,9,10,11,13a,14,15,16,16a-tetradecahydrocyclopropa[e]pyrrolo[1,2-a][1,4]diazacyclopentadecine-14a(5H)-carboxamide], the EC50 in test [1] is 0.77 nM; in test [2] it was 8.2 nM.
